In patent publication US20260184715A1, “NOVEL PYRROLO[1,2-d][1,2,4] TRIAZINONE DERIVATIVES AS NEGATIVE ALLOSTERIC MODULATORS OF MGLU7 RECEPTORS” (Neurosterix Pharma Sarl., priority 2022, published 2026):

target: T1, human metabotropic glutamate 7 receptor (hmGlu7) (Homo sapiens, UniProt Q14831); assay: mGlu7 assay on HEK-expressing human mGlu7: fluorescent cell based-Ca2+ mobilization assay (FLIPR), inhibition of EC80 L-AP4 response; settings: HEK-293 cells expressing hmGlu7, EC80 L-AP4; mean of at least three independent experiments in duplicate; read-out: Ca^2+ Flux (mean IC50)
T1 construct: expressed in transfected cells
Description: mGlu7 Assay on HEK-Expressing Human mGLU7
The cDNA encoding the human metabotropic glutamate 7 receptor (hmGlu7), (accession number NM_181874.2, NCBI Nucleotide database browser), was subcloned into an expression vector containing also the hygromycin resistance gene. In parallel, the cDNA encoding a G protein allowing redirection of the activation signal to intracellular calcium flux was subcloned into a different expression vector containing also the Puromycin resistance gene. Transfection of both these vectors into HEK293 cells with PolyFect reagent (Qiagen) according to supplier's protocol, and hygromycin and puromycin treatment allowed selection of antibiotic resistant cells which had integrated stably one or more copies of the plasmids. Positive cellular clones expressing hmGlu7 were identified in a functional assay measuring changes in calcium fluxes in response to glutamate and L-AP4 or known mGlu7 orthosteric antagonists.
HEK-293 cells expressing hmGlu7 were maintained in media containing DMEM, Fetal Bovine Serum (10%), GlutaMAX™ (2 mM), penicillin (100 units/mL), streptomycin (100 μg/mL), geneticin (100 μg/mL) and hygromycin-B (40 μg/mL) and puromycin (1 μg/mL) at 37° C. with 5% CO2 in a humidified atmosphere.
Human mGlu7 HEK-293 cells were plated out 24 hours prior to a fluorescent cell-based calcium mobilization assay using FLIPR^384 assay (Molecular Device, Sunnyvale, CA, USA) in black-walled, clear-bottomed, poly-L-ornithine-coated 384-well plates at a density of 25,000 cells/well in a glutamine/glutamate free DMEM medium containing fetal bovine serum (10%), penicillin (100 units/mL), streptomycin (100 μg/mL) and doxycyline (1 μg/ml) at 37° C. with 5% CO2 in a humidified atmosphere.
On the day of the assay, the medium was aspirated and the cells were loaded with a 3 μM solution of Fluo4-AM (LuBioScience, Lucerne, Switzerland) in 0.03% pluronic acid. After 1 hour at 37° C./5% CO2, the non incorporated dye was removed by washing cell plate with the assay buffer. All assays were performed in a pH 7.4 buffered-Solution containing 20 mM HEPES, 143 mM NaCl, 6 mM KCl, 1 mM MgSO4, 1 mM CaCl2, 0.125 mM sulfinpyrazone and 0.1% glucose.
After 10 s of basal fluorescence recording, various concentrations of the compounds of the invention were added to the cells. Changes in fluorescence levels were first monitored for 180 s in order to detect any agonist activity of the compounds. Then the cells were stimulated by an EC80 L-AP4 concentration for an additional 110 s in order to measure inhibiting activities of the compounds of the invention. EC80 L-AP4 concentration is the concentration giving 80% of the maximal glutamate response.
The concentration-response curves of L-AP4 or representative compounds of the present invention were generated using the Prism GraphPad software (Graph Pad Inc, San Diego, USA). The curves were fitted to a four-parameter logistic equation:
(Y=Bottom+(Top−Bottom)/(1+10^((Log IC50−X)*Hill Slope)
allowing determination of IC50 values.
The Table 3 below represents the mean IC50 obtained from at least three independent experiments of selected molecules performed in duplicate.

T1 sequence (Q14831 35-922 isoform Q14831-2 limits assumed): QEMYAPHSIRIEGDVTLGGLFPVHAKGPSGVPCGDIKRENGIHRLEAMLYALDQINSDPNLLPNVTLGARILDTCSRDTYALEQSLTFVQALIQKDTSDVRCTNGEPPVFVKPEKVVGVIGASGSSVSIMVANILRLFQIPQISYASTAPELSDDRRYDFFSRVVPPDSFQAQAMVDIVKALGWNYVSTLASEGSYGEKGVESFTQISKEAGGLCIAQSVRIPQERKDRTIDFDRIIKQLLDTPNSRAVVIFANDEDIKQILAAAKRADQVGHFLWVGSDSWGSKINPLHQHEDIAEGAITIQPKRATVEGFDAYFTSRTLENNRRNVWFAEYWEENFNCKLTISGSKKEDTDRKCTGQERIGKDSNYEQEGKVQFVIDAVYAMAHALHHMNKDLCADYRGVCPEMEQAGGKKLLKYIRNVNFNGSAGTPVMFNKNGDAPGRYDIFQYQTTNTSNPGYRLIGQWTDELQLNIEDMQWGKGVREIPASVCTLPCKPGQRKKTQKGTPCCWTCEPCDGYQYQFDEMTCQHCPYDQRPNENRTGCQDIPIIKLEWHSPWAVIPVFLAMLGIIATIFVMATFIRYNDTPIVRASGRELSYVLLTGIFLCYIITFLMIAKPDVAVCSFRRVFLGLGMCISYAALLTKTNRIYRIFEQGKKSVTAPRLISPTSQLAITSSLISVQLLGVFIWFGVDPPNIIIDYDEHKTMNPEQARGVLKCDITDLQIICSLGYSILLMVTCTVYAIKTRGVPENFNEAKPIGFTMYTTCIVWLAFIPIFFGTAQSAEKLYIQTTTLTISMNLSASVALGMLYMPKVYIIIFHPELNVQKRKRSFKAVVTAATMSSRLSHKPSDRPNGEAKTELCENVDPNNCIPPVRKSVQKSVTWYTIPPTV

Structure (SMILES)	IC50
Cc1c(-c2ccnc(OC(F)F)c2)cc2cnn(-c3ccccn3)c(=O)n12 [1-146]	100 to 1000 nM
Cc1c(OC(F)F)cccc1-c1c(C)c2cnn(-c3ncccn3)c(=O)n2c1C [1-120]	100 to 1000 nM
Cc1c(OC2CC2)cccc1-c1c(C)c2cnn(-c3ncccn3)c(=O)n2c1C [1-27]	< 100 nM
